Laboratory results from patent US9011925B2, “Method for preparing polysaccharide nanocomposite particles and uses of the same” (China Medical University, priority 2011, dated 2015).
Converted amounts (≈) assume the structure as drawn.

Experiments:
[1] = Surface potential analysis (Zetasizer, DLS); type: physicochemical; details: diluted 50-folds with water, sonicated 1 hour
Protocol: [Surface Potential Analysis]
The samples were diluted 50-folds with water, and sonicated for 1 hour by using an ultrasonic vibration machine. Then, the samples dissolved in water were analyzed by using a Zetasizer machine (Malvern ZS90) based on the principle of dynamic light scattering (DLS) to observe the surface potential and particle size distribution of the particles.

[2] = system: Colo 205 human rectum tumor cells; test: Cytotoxicity assay (MTT); type: cell-based; details: colo 205 cells, 72th hour, read-out: 1050 (50% concentration of inhibition)
Protocol: Colo 205 human rectum tumor cells were inoculated in a 24-well culture dish (1×10^4 cells/well), and incubated in an incubator at 37° C. under 5% CO2 for 24 hours. Then, the active component (KCY-Tai 1 and KCY-Tai 2) or polysaccharide nanocomposite particles (KCY-Tai 1-CNPs and KCY-Tai 2-CNPs 2) with different concentrations (0.39 to 12.5 μg/ml) was respectively added into the culture dish, and the cells were incubated for 24, 72, and 120 hours. The cells were washed with 1×PBS twice. MTT (3-(4,5-dimethyl thiazole-2-yl)-2,5-diphenyl tetrazolium bromide) (0.5 mg/ml) was added to the culture dish (200 μl/well), and the dish was placed in an incubator at 37° C. under 5% CO2. After incubating for 4 hours, MTT was sucked out and removed, and […] dimethyl sulfoxide (DMSO) was added into each well. After incubating on the shaker for 30 minutes, […] of the sample was sucked out from each well and transferred into a 96-well culture dish. The absorbance of the sample was determined under the wavelength of 570 nm by an enzyme-linked immunosorbent assay (ELISA) reader.

[3] = system: lung cancer cells, breast cancer cells, and rectal cancer cells; details: cited from earlier work
[4] = system: HepG2/A2; details: cited from earlier work
[5] = system: p53 protein; details: HepG2/A2 cells; cited from earlier work

| SMILES | Surface potential (mV) [1] [mV] | IC50 [2] [µg/mL] | cytotoxicity effects on lung, breast and rectal cancer cells [3] | cell cycle effect ([4]; accumulation of cyclin B1/cdc2 complex) | apoptosis markers (micronucleation, DNA fragmentation, caspase-3) [4] | effect on mitotic spindle (immunofluorescence staining) [4] | p53 protein activation [5] |
| --- | --- | --- | --- | --- | --- | --- | --- |
| COc1cc(/C=C2/C(=O)OC/C2=C/c2ccc3c(c2)OCO3)cc(OC)c1OC [KCY-Tai 2] | −11.8 | 0.7 (≈ 1.77 µM) | significant cytotoxicity effects | – | – | – | – |
| O=C1OCC(=C/c2ccc3c(c2)OCO3)/C1=C\c1ccc2c(c1)OCO2 [KCY-Tai 1] | −22.5 | 3 (≈ 8.56 µM) | significant cytotoxicity effects | arrested at G2/M phase | activation of caspase-3 | interrupt the formation of mitotic spindle | activation of p53 protein |
